# Activity calls are given as the source filed them. Rule as the data show it, for most assays here: actives have a measured EC50 and inactives only a lower limit.
# What was measured:
# H9c2 = test: cells; format: functional, cell-based; conditions: Rattus norvegicus, H9c2, Myocardium;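 also: confirmatory concentration-response retest of ultra-high-throughput screening hits for modulation of myocardial damage; cell death induced by hydrogen peroxide oxidative stress; compound pretreatment for 60 min then peroxide exposure for 2 h; potency is for protecting the cells against peroxide damage rather than for killing them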
# [1] = tested on: Streptococcus sp. 'group A'; test: growth inhibition of control SK(-) GAS strain, dose response, counter-screen for streptokinase expression inhibitor project, luminescence, kanamycin, BacTiterGlo, confirmation (AID 1900); format: functional, organism-based
# Streptokinase A = biological target: T1, Streptokinase A (Streptococcus pyogenes serotype M1, UniProt P10520); test: S. pyogenes streptokinase expression inhibitors, potency, dose response, plasminogen activation absorbance, OD405 (AID 1914); format: functional, Streptococcus pyogenes M1 GAS;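 also: secreted streptokinase activity via plasminogen activation per viability signal from cell pellet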
# T1 sequence (P10520 whole entry): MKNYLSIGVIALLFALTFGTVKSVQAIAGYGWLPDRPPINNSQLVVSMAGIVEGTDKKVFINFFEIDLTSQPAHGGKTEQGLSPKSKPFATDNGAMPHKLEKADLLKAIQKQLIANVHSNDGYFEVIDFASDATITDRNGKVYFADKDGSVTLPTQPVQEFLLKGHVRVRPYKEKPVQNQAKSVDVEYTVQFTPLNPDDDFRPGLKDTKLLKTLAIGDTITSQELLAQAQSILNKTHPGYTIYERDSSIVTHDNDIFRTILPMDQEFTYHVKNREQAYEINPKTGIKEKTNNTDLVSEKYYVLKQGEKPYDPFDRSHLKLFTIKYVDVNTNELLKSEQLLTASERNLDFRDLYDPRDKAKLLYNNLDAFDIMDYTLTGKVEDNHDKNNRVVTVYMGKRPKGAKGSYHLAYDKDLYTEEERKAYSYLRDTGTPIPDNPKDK
# Streptococcus = test: Group A Streptococcus viability loss, dose response, counter-screen for streptokinase expression inhibitor project, luminescence, BacTiterGlo (AID 1915); format: functional, organism-based;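 also: potency for reduction of bacterial viability or growth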
# [2] = biological target: T2, Heat shock factor protein 1 (Mus musculus, UniProt P38532); test: HSF1 potentiators in luciferase reporter cells, confirmation, cell-based, NIH3T3, luminescence, dose retest (AID 435004); format: functional;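 also: stress induced by proteasome inhibitor MG132 added 30 min after compound; luciferase reporter driven by HSF1 response element in NIH3T3 cells; actives raise luminescence as potentiators of the MG132 stress response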
# T2 sequence (P38532 whole entry): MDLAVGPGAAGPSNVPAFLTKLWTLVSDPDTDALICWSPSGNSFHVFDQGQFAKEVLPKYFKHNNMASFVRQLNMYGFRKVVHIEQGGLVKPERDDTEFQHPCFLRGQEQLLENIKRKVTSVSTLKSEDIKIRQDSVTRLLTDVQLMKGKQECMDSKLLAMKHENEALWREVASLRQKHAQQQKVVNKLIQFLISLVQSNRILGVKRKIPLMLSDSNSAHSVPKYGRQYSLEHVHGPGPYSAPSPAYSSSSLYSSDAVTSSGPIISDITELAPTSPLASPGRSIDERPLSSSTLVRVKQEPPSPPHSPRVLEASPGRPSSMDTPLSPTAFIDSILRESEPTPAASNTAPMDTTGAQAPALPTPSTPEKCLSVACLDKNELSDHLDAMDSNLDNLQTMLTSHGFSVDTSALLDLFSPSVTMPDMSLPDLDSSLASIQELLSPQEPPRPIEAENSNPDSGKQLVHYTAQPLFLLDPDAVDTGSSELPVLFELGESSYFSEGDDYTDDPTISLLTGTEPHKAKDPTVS
# [3] = biological target: T3, Replicative DNA helicase DnaB (Mycobacterium tuberculosis, UniProt P9WMR3); test: DnaB intein splicing inhibitors, dose response, biochemical, cell-free fluorescence (AID 449749); format: functional
# T3 sequence (P9WMR3 whole entry): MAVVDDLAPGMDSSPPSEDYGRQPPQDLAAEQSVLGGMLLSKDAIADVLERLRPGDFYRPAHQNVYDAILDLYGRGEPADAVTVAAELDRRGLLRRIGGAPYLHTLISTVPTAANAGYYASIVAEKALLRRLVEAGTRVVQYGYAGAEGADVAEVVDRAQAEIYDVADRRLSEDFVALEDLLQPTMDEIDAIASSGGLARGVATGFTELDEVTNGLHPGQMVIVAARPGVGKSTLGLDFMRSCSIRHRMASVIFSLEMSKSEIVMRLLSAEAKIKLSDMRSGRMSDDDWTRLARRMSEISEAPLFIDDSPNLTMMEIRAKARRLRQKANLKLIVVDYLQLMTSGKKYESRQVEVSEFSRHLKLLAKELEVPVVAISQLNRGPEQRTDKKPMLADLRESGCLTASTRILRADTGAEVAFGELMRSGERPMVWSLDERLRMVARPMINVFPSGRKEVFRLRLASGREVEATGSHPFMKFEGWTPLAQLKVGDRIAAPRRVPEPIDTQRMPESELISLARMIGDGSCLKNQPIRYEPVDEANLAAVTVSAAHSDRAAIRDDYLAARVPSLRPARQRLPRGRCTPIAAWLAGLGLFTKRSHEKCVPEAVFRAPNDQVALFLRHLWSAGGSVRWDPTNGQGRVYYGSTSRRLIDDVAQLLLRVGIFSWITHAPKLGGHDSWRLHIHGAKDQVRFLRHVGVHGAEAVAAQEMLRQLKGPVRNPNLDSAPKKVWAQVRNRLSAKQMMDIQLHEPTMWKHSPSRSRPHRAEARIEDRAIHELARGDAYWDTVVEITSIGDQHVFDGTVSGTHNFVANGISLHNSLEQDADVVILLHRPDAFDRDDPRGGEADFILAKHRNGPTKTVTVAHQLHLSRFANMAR
# Protein RecA = biological target: T4, Protein RecA (Mycobacterium tuberculosis, UniProt P9WHJ3); test: Fluorescence Cell-Free Homogeneous Dose Retest to Identify Inhibitors of RecA-Intein Splicing Activity. [Related pubchem assays (depositor defined):AID2097, AID2223, AID489010, AID492950]; format: functional
# T4 sequence (P9WHJ3 whole entry): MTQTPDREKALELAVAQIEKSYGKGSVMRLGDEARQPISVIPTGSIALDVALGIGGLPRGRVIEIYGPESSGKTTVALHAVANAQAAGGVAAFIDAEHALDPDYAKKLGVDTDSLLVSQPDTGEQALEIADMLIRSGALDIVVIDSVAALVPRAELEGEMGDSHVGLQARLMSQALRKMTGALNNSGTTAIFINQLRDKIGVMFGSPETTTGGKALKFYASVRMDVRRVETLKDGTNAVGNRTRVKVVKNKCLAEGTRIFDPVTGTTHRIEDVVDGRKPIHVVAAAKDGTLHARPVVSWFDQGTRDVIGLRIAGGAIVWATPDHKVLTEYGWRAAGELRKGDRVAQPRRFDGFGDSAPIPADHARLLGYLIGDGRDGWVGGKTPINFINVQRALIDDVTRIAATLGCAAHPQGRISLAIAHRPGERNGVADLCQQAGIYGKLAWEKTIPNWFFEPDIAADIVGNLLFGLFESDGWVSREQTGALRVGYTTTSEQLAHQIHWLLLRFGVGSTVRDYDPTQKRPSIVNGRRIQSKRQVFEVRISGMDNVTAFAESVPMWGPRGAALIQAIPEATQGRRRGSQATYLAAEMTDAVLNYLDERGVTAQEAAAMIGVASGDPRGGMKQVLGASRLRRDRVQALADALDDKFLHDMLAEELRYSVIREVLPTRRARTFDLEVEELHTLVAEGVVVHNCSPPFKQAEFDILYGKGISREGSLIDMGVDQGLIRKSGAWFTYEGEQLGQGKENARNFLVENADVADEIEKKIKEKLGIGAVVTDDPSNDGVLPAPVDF
compound,measurement,setting,value
CCOCCn1ccc2c(OCC(=O)Nc3cc(OC)ccc3OC)cccc2c1=O,IC50,H9c2,> 79 µM (inactive)
CN(CC1CCCO1)S(=O)(=O)c1ccc(C(=O)Nc2ccccc2F)cc1 (configuration not stated),EC50,[1],> 150 µM (not active)
same,EC50,Streptokinase A,> 150 µM (not active)
same,EC50,Streptococcus,> 150 µM (not active)
O=C(CSc1nnc(-c2c[nH]c3ccccc23)o1)c1ccccc1,EC50,[2],> 260 µM (inactive)
Cc1sc2nc(C3CC3)nc(SCC(=O)N3CCc4ccccc4C3)c2c1C,EC50,[2],28.6 µM (active)
N=c1c(S(=O)(=O)c2ccc(Br)cc2)cc2c(=O)n3ccccc3nc2n1C1CCCC1,EC50,[2],> 260 µM (inactive)
CCN(CC)S(=O)(=O)c1ccc(N2CCOCC2)c(NC(=O)c2cc(-c3ccccn3)nc3ccccc23)c1,IC50,H9c2,> 79 µM (inactive)
CC(C)C[C@H](NC(=O)c1[nH]cnc1C(=O)N[C@@H](C)C(=O)OC(C)(C)C)C(=O)OCc1ccccc1,EC50,[1],8.12 µM (active)
same,EC50,Streptokinase A,> 150 µM (not active)
same,EC50,Streptococcus,40.9 µM (active)
COc1ccc(C2/C=C\CN(C(=O)c3ccccc3)CC(=O)N2Cc2ccc(F)cc2)cc1 (configuration not stated),EC50,[1],> 150 µM (not active)
same,EC50,Streptokinase A,> 150 µM (not active)
same,EC50,Streptococcus,> 150 µM (not active)
O=C1NCCCC2c3c(cc(Br)c(O)c3Br)OC12N1CCCCC1 (configuration not stated),AC50,[3],32.1 µM (active)
same,EC50,Protein RecA,5.46 µM (active)
COc1ccccc1C1C(C#N)=C(N)Oc2c1c(-c1ccccc1)nn2-c1ccccc1 (configuration not stated),AC50,[3],9.85 µM (active)
same,EC50,Protein RecA,4.49 µM (active)
COC(=O)[C@@H](NC(=O)NC1CCCc2ccccc21)C(C)C (some centres not stated),EC50,[2],> 260 µM (inactive)
COc1ccccc1CN1CCSCC1,AC50,[3],13.2 µM (active)
same,EC50,Protein RecA,5.08 µM (active)
Fc1ccc(Nc2nc(Oc3ccccc3F)nc(N3CCCC3)n2)cc1,AC50,[3],3.2 µM (active)
same,EC50,Protein RecA,0.946 µM (active)
CCCN(CC(=O)Nc1ccccc1C)C(=O)Cc1nnc(O)c2ccccc12,IC50,H9c2,> 79 µM (inactive)
COc1ccc(OC)c(C2C(C#N)=C(N)Oc3c2c(C)nn3-c2ccc(C)cc2)c1 (configuration not stated),AC50,[3],> 380 µM (inactive)
same,EC50,Protein RecA,4.91 µM (active)
c1ccc(-c2nc(C3CCCCC3)c3ccccc3n2)cc1,EC50,[1],3.71 µM (active)
same,EC50,Streptokinase A,21.6 µM (active)
same,EC50,Streptococcus,25.2 µM (active)
Cc1ccc(/C=C2\SC(N3CCN(C(c4ccccc4)c4ccccc4)CC3)=NC2=O)o1,AC50,[3],> 380 µM (inactive)
same,EC50,Protein RecA,49.1 µM (active)
COc1cccc(NN=C2C(=O)NC(=S)NC2=O)c1,EC50,[2],9.18 µM (active)
CC(C)(C)OC(=O)N1CCC[C@H]1c1nnc(SCC(=O)Nc2ccc(Br)cc2)o1,IC50,H9c2,> 79 µM (inactive)
CCCCCCCN1N=C(C)C(C(=O)c2ccccc2)C1=O (configuration not stated),EC50,[1],2.89 µM (active)
same,EC50,Streptokinase A,> 150 µM (not active)
same,EC50,Streptococcus,30.9 µM (active)
CC(=O)Oc1ccc(Cn2cnc3cc4ccccc4cc32)cc1,EC50,[2],44.4 µM (active)
COc1ccc(S(=O)(=O)Nc2ccncc2)c(C)c1C,EC50,[2],> 260 µM (inactive)
O=C(Nc1ccc(F)c(Cl)c1)Nc1csc2ccccc12,EC50,[1],6.52 µM (active)
same,EC50,Streptokinase A,> 50 µM (not active)
same,EC50,Streptococcus,5.69 µM (active)
N#Cc1cc(-c2ccccc2)cnc1Sc1ccccc1,EC50,[2],> 260 µM (inactive)
COc1ccccc1N1CC(C(=O)Nc2nnc(SCC(=O)N3CCCC3)s2)CC1=O (configuration not stated),EC50,[1],> 150 µM (not active)
same,EC50,Streptokinase A,> 150 µM (not active)
same,EC50,Streptococcus,> 150 µM (not active)
CCCc1n[nH]c2c1C1(C(=O)N(Cc3ccccc3)c3ccccc31)C(C(=O)OC)=C(N)O2 (configuration not stated),EC50,[2],> 260 µM (inactive)
COc1ccccc1-c1[nH]nc2c1[C@H](C)CC[C@H]2C(C)C,EC50,[1],10.9 µM (active)
same,EC50,Streptokinase A,> 150 µM (not active)
same,EC50,Streptococcus,> 150 µM (not active)
CCc1nnc(NC(=O)C(NC(=O)c2ccccc2Cl)C(C)C)s1 (configuration not stated),EC50,[2],> 260 µM (inactive)
C[C@@H]1CN([C@@H](C)CO)C(=O)c2cc(NC(=O)Nc3ccccc3)ccc2O[C@H]1CN(C)C(=O)Nc1cccc2ccccc12,IC50,H9c2,13.9 µM (active)
COc1ccc(OC)c(Nc2nc(N)c([N+](=O)[O-])c(N3CCOCC3)n2)c1,IC50,H9c2,17.7 µM (active)
COc1ccc(C(=O)COc2ccccc2C(N)=O)cc1,IC50,H9c2,> 79 µM (inactive)
COC(=O)c1ccc(Cn2c(C)c(C(=O)NCc3cccs3)sc2=O)o1,IC50,H9c2,12.1 µM (active)
COc1ccc(/C=N/NC(=O)c2cc(-c3ccc4c(c3)OCO4)[nH]n2)cc1OC,IC50,H9c2,> 79 µM (inactive)
COC(=O)Cc1c(C)[nH]n(-c2cc(Cl)cc(Cl)c2)c1=O,AC50,[3],11 µM (active)
same,EC50,Protein RecA,16.9 µM (active)
